Assay results as given in patent US7569550B2, “14 and 15 membered ring compounds” (Glaxo Group Limited, priority 2003, dated 2009).
Structures can show the parent of a compound that is named as a salt.

Key:
[1] = test system: erythromycin resistant strains of Streptococcus pneumoniae; assay: MIC, standard broth dilution method in microtitre; assay type: cell-based
Experimental: (§1) Using a standard broth dilution method in microtitre, compounds were tested for antibacterial activity. The compounds in the above examples gave minimum inhibitory concentrations (MICs) less than 1 microgram per millilitre against erythromycin-sensitive and erythromycin-resistant strains of Streptococcus pneumoniae and Streptococcus pyogenes.

[2] = test system: erythromycin resistant strains of Streptococcus pyogenes; assay: MIC, standard broth dilution method in microtitre; assay type: cell-based
Experimental: as §1

| SMILES | MIC [1] | MIC [2] |
| --- | --- | --- |
| CC[C@@H]1OC(=O)[C@H](C)[C@H](O[C@@H]2C[C@](C)(OC)[C@H](OCCCNCCOc3ccc4c(c3)c(=O)c(C(=O)O)cn4CC)[C@H](C)O2)[C@@H](C)[C@H](O[C@H]2O[C@@H](C)C[C@@H](N(C)C)[C@H]2O)[C@](C)(OC)C[C@H](C)C(=O)[C@H](C)[C@H]2OC(=O)O[C@@]12C [Example 3, 4″-O-{3-[2-(3-Carboxy-1-ethyl-4-oxo-1,4-dihydro-quinolin-6-yloxy)-ethylamino]-propyl}-6-O-methyl-erythromycin A 11,12-carbonate bis trifluoroacetate] | ≤ 1 µg/mL | ≤ 1 µg/mL |
| CC[C@@H]1OC(=O)[C@H](C)[C@H](O[C@@H]2C[C@](C)(OC)[C@H](OCCCNCCCc3ccc4c(c3)c(=O)c(C(=O)O)cn4CC)[C@H](C)O2)[C@@H](C)[C@H](O[C@H]2O[C@@H](C)C[C@@H](N(C)C)[C@H]2O)[C@](C)(OC)C[C@H](C)C(=O)[C@H](C)[C@H]2OC(=O)O[C@@]12C [Example 9, 4″-O-{3-[3-(3-Carboxy-1-ethyl-4-oxo-1,4-dihydro-quinolin-6-yl)propylamino]-propyl}-6-O-methyl-erythromycin A 11,12-carbonate formate] | ≤ 1 µg/mL | ≤ 1 µg/mL |
| CC[C@@H]1OC(=O)[C@H](C)[C@H](O[C@@H]2C[C@](C)(OC)[C@H](OCCCNCCNc3cc4c(=O)c(C(=O)O)cn(C5CC5)c4cc3Cl)[C@H](C)O2)[C@@H](C)[C@H](O[C@H]2O[C@@H](C)C[C@@H](N(C)C)[C@H]2O)[C@](C)(OC)C[C@H](C)C(=O)[C@H](C)[C@H]2OC(=O)O[C@@]12C [Example 10, 4″-O-{3-[2-(3-Carboxy-7-chloro-1-cyclopropyl-4-oxo-1,4-dihydro-quinolin-6-ylamino)ethylamino]-propyl}-6-O-methyl-erythromycin A 11,12-carbonate formate] | ≤ 1 µg/mL | ≤ 1 µg/mL |
| CC[C@@H]1OC(=O)[C@H](C)[C@H](O[C@@H]2C[C@](C)(OC)[C@H](OCCCNCCNc3cc4c(cc3F)c(=O)c(C(=O)O)cn4C3CC3)[C@H](C)O2)[C@@H](C)[C@H](O[C@H]2O[C@@H](C)C[C@@H](N(C)C)[C@H]2O)[C@](C)(OC)C[C@H](C)C(=O)[C@H](C)[C@H]2OC(=O)O[C@@]12C [Example 11, 4″-O-{3-[2-(3-Carboxy-1-cyclopropyl-6-fluoro-4-oxo-1,4-dihydro-quinolin-7-ylamino)ethylamino]-propyl}-6-O-methyl-erythromycin A 11,12-carbonate formate] | ≤ 1 µg/mL | ≤ 1 µg/mL |
| CC[C@@H]1OC(=O)[C@H](C)[C@H](O[C@@H]2C[C@](C)(OC)[C@H](OCCCNCCNc3nc4c(cc3F)c(=O)c(C(=O)O)cn4CC)[C@H](C)O2)[C@@H](C)[C@H](O[C@H]2O[C@@H](C)C[C@@H](N(C)C)[C@H]2O)[C@](C)(OC)C[C@H](C)C(=O)[C@H](C)[C@H]2OC(=O)O[C@@]12C [Example 12, 4″-O-{3-[2-(3-Carboxy-1-ethyl-6-fluoro-4-oxo-1,4-dihydro-[1,8]naphthyridin-7-ylamino)ethylamino]-propyl}-6-O-methyl-erythromycin A 11,12-carbonate formate] | ≤ 1 µg/mL | ≤ 1 µg/mL |
| CC[C@H]1OC(=O)[C@H](C)[C@@H](O[C@H]2C[C@@](C)(OC)[C@@H](OCCCNCCCc3cnc4c(c3)c(=O)c(C(=O)O)cn4CC)[C@H](C)O2)[C@H](C)[C@@H](O[C@@H]2O[C@H](C)C[C@H](N(C)C)[C@H]2O)[C@](C)(OC)C[C@@H](C)C(=O)[C@@H](C)[C@H]2NC(=O)O[C@@]21C [Example 24, 4″-O-{3-[3-(3-Carboxy-1-ethyl-4-oxo-1,4-dihydro-6-[1,8]naphthryidinyl)-propylamino]-propyl}-6-O-methyl-11-desoxy-11-(R)-amino-erythromycin A 11,12-carbamate formate] | ≤ 1 µg/mL | ≤ 1 µg/mL |
